From patent US20190209682A1, “ISOFORM-SPECIFIC, CONTEXT-PERMISSIVE TGFB1 INHIBITORS AND USE THEREOF” (Scholar Rock, Inc., priority 2017, published 2019)

Experiments:
[1] = system: tonic SMAD2/3 signaling in BAL cells; test: Pharmacodynamics, tonic phospho-SMAD2/3 in BAL cells of healthy rats; assay type: in vivo, rat; settings: single oral gavage dose 100 mg/kg, 2 hours post-dosing
Procedure: To confirm isoform-selective inhibition of TGFβ1 in vivo, a pharmacodynamics study was conducted in which effects of Ab3 on tonic phospho-SMAD2/3 levels were assessed in bronchoalveolar lavage (BAL) cells collected from healthy rats. It is reported in the literature that under homeostatic conditions, BAL cells predominantly express TGFβ2/3, but little TGFβ1, while the latter becomes preferentially elevated in pathologic conditions.
Healthy Sprague Dawley rats (approximately 6-8 weeks old, weighing 200-250 g at the beginning of the study; Charles River) were randomized by bodyweight into study groups and dosed as described below.
Animals received test antibodies (huNEG-mIgG1, […], or Ab3) on Days 1, 8, and 15 by intraperitoneal injection. Animals are euthanized on Day 16 for BAL and serum collections. One group of control animals was dosed with a single oral gavage (PO) dose of LY2109761 (small molecule ALK5 inhibitor) at 100 mg/kg and was euthanized at 2 hours (+/−20 min) post-dosing for BAL collections.
To collect BAL samples, the whole lung was lavaged three times with 5.0 mL of ice-cold Dulbecco's phosphate buffered saline. […]
Phospho-SMAD2/3 assays were performed by ELISA (Cell Signaling Technologies) according to the manufacturer's instructions. Results were assessed by phosphorylated-to-total SMAD2/3 ratios.

[2] = Rat toxicity study, Phase II; assay type: in vivo
[3] = Rat toxicity study, Phase I; settings: for Aortic root: Hemorrhage, Minimal / Aortic root: Infiltrate, mixed cell, Minimal / Atrium: Hemorrhage, Minimal / Atrium: Hyperplasia, endothelium, Minimal / Atrium: Infiltrate, mixed cell, Minimal / Atrium: Infiltrate, mixed cell, Slight / Coronary artery: Necrosis with inflammation, Slight / Heart valves: Valvulopathy, Minimal / Heart valves: Valvulopathy, Moderate / Heart valves: Valvulopathy, Slight / Myocardium: Degeneration/necrosis, Minimal / Myocardium: Degeneration/necrosis, Slight / Myocardium: Hemorrhage, Slight / Myocardium: Infiltrate, mixed cell, Slight: incidence
Procedure: Animal body weight was determined at days 1, 3, and 7 of the dosing phase. Animals were sacrificed at day 8 and necropsies performed.

[4] = 200 mg/kg oral gavage once daily for five days

Structure (SMILES): c1ccc(-c2nn3c(c2-c2ccnc4cc(OCCN5CCOCC5)ccc24)CCC3)nc1 [LY2109761]
- Tonic SMAD2/3 signaling (phosphorylated-to-total SMAD2/3 ratio) [1]: significantly suppressed
- Heart weights ([2]; 200 mg/kg): increased heart weights
- Liver weights ([2]; 200 mg/kg): Increased liver weights
- Thymus weights ([2]; 200 mg/kg): decreased thymus weights
- Thyroid weights ([2]; 200 mg/kg): increased thyroid weights
- Uterus weights ([2]; 200 mg/kg): decreased uterus weights
- Heart findings [2, 4]: test article-related heart findings occurred
- Microscopic findings in bones, liver, pancreas (artery), thymus, thyroid, female reproductive tissues, mammary gland [2, 4]: microscopic findings occurred
- Animals found dead at day 7 ([3]; 200 mg/kg oral gavage once daily, n=5): Two
- Aortic root: Hemorrhage, Minimal ([3]; 200 mg/kg/day, n=5): 1
- Aortic root: Infiltrate, mixed cell, Minimal ([3]; 200 mg/kg/day, n=5): 1
- Atrium: Hemorrhage, Minimal ([3]; 200 mg/kg/day, n=5): 1
- Atrium: Hyperplasia, endothelium, Minimal ([3]; 200 mg/kg/day, n=5): 1
- Atrium: Infiltrate, mixed cell, Minimal ([3]; 200 mg/kg/day, n=5): 2
- Atrium: Infiltrate, mixed cell, Slight ([3]; 200 mg/kg/day, n=5): 0
- Coronary artery: Necrosis with inflammation, Slight ([3]; 200 mg/kg/day, n=5): 0
- Heart valves: Valvulopathy, Minimal ([3]; 200 mg/kg/day, n=5): 1
- Heart valves: Valvulopathy, Moderate ([3]; 200 mg/kg/day, n=5): 1
- Heart valves: Valvulopathy, Slight ([3]; 200 mg/kg/day, n=5): 3
- Myocardium: Degeneration/necrosis, Minimal ([3]; 200 mg/kg/day, n=5): 0
- Myocardium: Degeneration/necrosis, Slight ([3]; 200 mg/kg/day, n=5): 1
- Myocardium: Hemorrhage, Slight ([3]; 200 mg/kg/day, n=5): 1
- Myocardium: Infiltrate, mixed cell, Slight ([3]; 200 mg/kg/day, n=5): 0
- Mortality ([3]; 300 mg/kg oral gavage once daily, days 3, 6, or 7, all animals, n=5): sacrificed in a moribund condition or found dead
- Aortic root: Hemorrhage, Minimal ([3]; 300 mg/kg/day, n=5): 0
- Aortic root: Infiltrate, mixed cell, Minimal ([3]; 300 mg/kg/day, n=5): 0
- Atrium: Hemorrhage, Minimal ([3]; 300 mg/kg/day, n=5): 2
- Atrium: Hyperplasia, endothelium, Minimal ([3]; 300 mg/kg/day, n=5): 3
- Atrium: Infiltrate, mixed cell, Minimal ([3]; 300 mg/kg/day, n=5): 3
- Atrium: Infiltrate, mixed cell, Slight ([3]; 300 mg/kg/day, n=5): 1
- Coronary artery: Necrosis with inflammation, Slight ([3]; 300 mg/kg/day, n=5): 1
- Heart valves: Valvulopathy, Minimal ([3]; 300 mg/kg/day, n=5): 2
- Heart valves: Valvulopathy, Moderate ([3]; 300 mg/kg/day, n=5): 0
- Heart valves: Valvulopathy, Slight ([3]; 300 mg/kg/day, n=5): 3
- Myocardium: Degeneration/necrosis, Minimal ([3]; 300 mg/kg/day, n=5): 1
- Myocardium: Degeneration/necrosis, Slight ([3]; 300 mg/kg/day, n=5): 1
- Myocardium: Hemorrhage, Slight ([3]; 300 mg/kg/day, n=5): 0
- Myocardium: Infiltrate, mixed cell, Slight ([3]; 300 mg/kg/day, n=5): 1
- Animals with clear fluid in the thoracic cavity and enlarged thymus (edema) ([3]; 300 mg/kg, found dead on Day 3): one
- Animals with abnormally-shaped sternum ([3]; each treatment group, 200 mg/kg or 300 mg/kg): four
- Bone findings ([3]; sternum, femur and tibia, higher incidence and/or severity with LY2109761): macroscopic abnormally shaped sternum and microscopic increased thickness of the hypertrophic zone
- Heart valve findings, microscopic ([3]; ≥200 mg/kg): valvulopathy
- Heart weights ([3]; ≥200 mg/kg): Increased heart weights
